According to publication PMC4391747 (Science translational medicine, 2012):

Columns and labels:
[1] = rat, in vivo; cited from earlier work
[2] = Solubility of MIV-150 in ring polymer; assay type: physicochemical

In the case of `CCC(=O)c1ccc(F)c([C@@H]2C[C@@H]2NC(=O)Nc2ccc(C#N)cn2)c1O` [MIV-150], the “Time within which absorbed MIV-150 is cleared” value [1] is given as ≤ 12 h, the “Solubility of MIV-150 in EVA-40” value ([2]; DSC) is given as “partially soluble” and the “Solubility of MIV-150 in silicone” value ([2]; DSC of formulated ring segments and release studies with micronized MIV-150) is given as “insoluble”.
